According to US20090317838A1, “DETECTION OF BACTERIAL PEPTIDOGLYCAN-LIKE COMPOUNDS” (priority 2008, published 2009):

Columns and labels:
[1] = molecular target: T1, NOD2 3020InsC frameshift mutant (fsNOD2) (Homo sapiens, UniProt Q9HC29, L1007P); assay: NF-κB-luciferase reporter assay in HEK293T cells transfected with frameshift NOD2 (fsNOD2); format: cell-based; conditions: HEK293T co-transfected with pNF-κB-Luc and NOD2 3020InsC
T1 construct: expressed in transfected cells; host or cells: HEK293T
T1 sequence (Q9HC29 1-1007 L1007P): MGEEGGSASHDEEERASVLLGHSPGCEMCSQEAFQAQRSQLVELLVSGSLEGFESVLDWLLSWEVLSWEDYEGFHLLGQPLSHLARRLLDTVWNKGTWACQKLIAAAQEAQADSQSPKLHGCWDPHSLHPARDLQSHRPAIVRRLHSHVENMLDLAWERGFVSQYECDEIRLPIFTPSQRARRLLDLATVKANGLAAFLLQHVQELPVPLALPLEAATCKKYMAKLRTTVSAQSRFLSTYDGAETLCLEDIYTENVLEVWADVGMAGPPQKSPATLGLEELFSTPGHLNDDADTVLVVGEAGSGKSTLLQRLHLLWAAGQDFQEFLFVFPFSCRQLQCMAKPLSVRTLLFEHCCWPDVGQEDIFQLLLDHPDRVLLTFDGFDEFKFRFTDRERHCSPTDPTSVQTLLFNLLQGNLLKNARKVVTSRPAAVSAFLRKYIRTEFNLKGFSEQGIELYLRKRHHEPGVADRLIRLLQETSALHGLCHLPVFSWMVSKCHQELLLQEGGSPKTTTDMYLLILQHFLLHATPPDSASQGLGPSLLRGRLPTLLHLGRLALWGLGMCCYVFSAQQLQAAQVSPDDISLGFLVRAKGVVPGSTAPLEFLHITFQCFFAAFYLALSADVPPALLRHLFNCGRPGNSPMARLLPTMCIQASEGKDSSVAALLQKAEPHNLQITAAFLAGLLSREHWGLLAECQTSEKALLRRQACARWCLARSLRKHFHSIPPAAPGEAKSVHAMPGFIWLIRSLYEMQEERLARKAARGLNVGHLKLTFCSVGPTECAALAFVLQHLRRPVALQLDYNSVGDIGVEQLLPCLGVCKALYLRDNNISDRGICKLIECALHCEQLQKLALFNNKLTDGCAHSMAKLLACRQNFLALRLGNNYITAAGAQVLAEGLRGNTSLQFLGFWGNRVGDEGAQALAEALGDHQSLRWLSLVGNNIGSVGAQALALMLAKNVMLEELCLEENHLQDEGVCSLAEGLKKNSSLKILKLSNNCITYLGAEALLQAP
Procedure: (§1) Transfection was performed as described by Girardin et al., 2003a. HEK293T cells were transfected overnight using 1% FuGENE 6 transfection reagent (Roche Diagnostics, Mannheim, Germany) with 75 ng of the reporter plasmid pNF-kB-Luc (Stratagene, La Jolla, Calif. USA) and 1 ng p-UNO-hNODt (InvivoGen, San Diego, Calif. USA) or fsNOD2 expression plasmids (Begue et al. (2006); Chamaillard et al. (2003)). The plasmid pNF-κB-Luc is a 5.7 kb cis-reporting pNF-κB-Luc plasmid comprising an NF-κB enhancer region and a firefly luciferase gene controlled by a synthetic promoter that contains direct repeats of the transcription recognition sequences for the binding sites for NF-κB (Stratagene, Carlsbad, Calif., USA). The NOD2 3020InsC frameshift mutation was introduced using the QuikChange XL site-directed mutagenesis kit (Stratagene, Carlsbad, Calif., USA). The entire coding region was verified by sequencing and the size of the encoded product was verified by immunoblotting (Girardin et al., 2003b). A total plasmid concentration of 250 ng was achieved by addition of pcDNA3.1 vector.
The NOD2 3020InsC variant comprises a Leu1007-Pro substitution in the tenth leucine-rich region followed by a premature stop codon. It activates the NF-κB pathway to the same extent as wild-type NOD2 when overexpressed, but is unable to detect MDP or PGN (Girardin et al., 2003b).
The specificity of the system was checked by transfecting an expression plasmid for frameshift NOD2 (fsNOD2), a mutant unable to activate NF-κB in response to MDP (FIG. 11E).

NOD2 = molecular target: T2, NOD2 (Homo sapiens, UniProt Q9HC29); assay: NF-κB-luciferase reporter assay in HEK293T cells transfected with NOD2; format: cell-based; conditions: for response of NOD2-transfected cells to inflammatory cytokines: acts via endogenous receptors, compared with fsNOD2 cells
T2 construct: host or cells: HEK293T
T2 sequence (Q9HC29 whole entry): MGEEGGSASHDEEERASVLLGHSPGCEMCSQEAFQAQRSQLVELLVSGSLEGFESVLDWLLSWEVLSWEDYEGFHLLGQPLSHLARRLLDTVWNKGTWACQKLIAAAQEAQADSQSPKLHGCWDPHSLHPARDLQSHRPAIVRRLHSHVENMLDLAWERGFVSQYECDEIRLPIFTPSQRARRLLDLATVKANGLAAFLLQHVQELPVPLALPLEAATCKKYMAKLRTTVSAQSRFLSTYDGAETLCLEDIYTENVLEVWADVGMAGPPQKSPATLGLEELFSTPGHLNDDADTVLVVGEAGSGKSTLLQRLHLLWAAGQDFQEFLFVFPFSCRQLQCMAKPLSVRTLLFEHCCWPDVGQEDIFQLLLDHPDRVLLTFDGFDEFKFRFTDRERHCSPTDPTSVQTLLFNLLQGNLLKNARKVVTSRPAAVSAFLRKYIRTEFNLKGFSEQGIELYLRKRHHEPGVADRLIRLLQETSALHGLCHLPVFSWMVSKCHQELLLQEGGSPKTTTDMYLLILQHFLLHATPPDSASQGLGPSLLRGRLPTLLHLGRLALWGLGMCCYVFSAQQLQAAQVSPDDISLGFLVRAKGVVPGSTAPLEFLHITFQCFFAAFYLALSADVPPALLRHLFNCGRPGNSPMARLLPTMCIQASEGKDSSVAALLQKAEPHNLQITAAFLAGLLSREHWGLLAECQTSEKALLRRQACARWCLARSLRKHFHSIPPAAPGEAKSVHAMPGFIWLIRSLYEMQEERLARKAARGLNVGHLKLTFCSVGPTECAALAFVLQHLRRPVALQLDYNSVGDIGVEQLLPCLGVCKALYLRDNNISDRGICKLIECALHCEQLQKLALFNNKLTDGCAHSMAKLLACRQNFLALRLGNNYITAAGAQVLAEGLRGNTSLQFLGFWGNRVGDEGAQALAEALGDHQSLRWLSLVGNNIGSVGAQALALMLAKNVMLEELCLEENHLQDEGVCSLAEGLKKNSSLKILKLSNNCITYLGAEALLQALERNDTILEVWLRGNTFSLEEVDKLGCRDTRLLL
Procedure: Human embryonic kidney HEK293T cells (American Type Culture Collection (“ATCC,”) Manassas, Va., USA) were cultured in Dulbecco's modified Eagle's medium (Invitrogen, Carlsbad, Calif., USA) supplemented with 10% fetal calf serum (“FCS”) (PAA Laboratories GmbH, Pasching, Austria). HEK293T cells were seeded into 24 well cell culture plates at a density of 10^5 cells/ml (500 μl/well) and transfected with various expression plasmids, as previously described (Girardin 2003a) (FIG. 1).
as §1
Following a twenty hour transfection period, 50 μl of plasma was added into the wells containing the transfected cells. Purified peptidoglycan, diluted in plasma, from S. aureus (Sigma, St. Louis, Mo., USA) and E. coli (kind gift of Dominique Mengin-Lecreulx or InviroGen, San Diego, Calif., USA) served as positive controls. After six hours of peptidoglycan stimulation, the cell supernatant was removed and the cells were lysed with 100 μl of lysis buffer (25 mM Tris-phosphate pH 8, 8 mM MgCl2, 1 mM dithiothreitol, 15% glycerol, and 1% Triton X-100). Luciferase expression was measured from a 10 μl aliquot of cell extract using a microplate luminometer (LB960 luminometer centro, Berthold Technologies, Bad Wildbad, Germany) after addition of 100 μl of substrate buffer to a final concentration of 1.8 mM luciferin and 1 mM ATP. Each measurement was performed in triplicate. The detection level of the assay is at least 0.15 ug/ml PGN, determined by adding purified PGN to healthy donor plasma.
To validate the experimental system, NF-κB activation in HEK293T cells co-transfected with pNF-κB-Luc and pUNO-hNOD2 was tested in response to stimulation with both MPD and PGN derived from S. aureus (FIG. 2). […]

| luciferase / NF-κB response in fsNOD2-transfected cells [1] | response of NOD2-transfected cells to inflammatory cytokines (NOD2) | Compound | NF-κB activation (luciferase expression) (NOD2; 300 pM MDP, HEK293T co-transfected with pNF-κB-Luc and pUNO-hNOD2) | signal in NOD2 reporter system (luciferase, RLU) (NOD2; 6 hours of incubation, without plasma) |
| --- | --- | --- | --- | --- |
| similarly responsive | similarly responsive | interleukin 1β [IL-1β] |  |  |
| similarly responsive | similarly responsive | tumor necrosis factor-α [TNF-α] |  |  |

| Compound | luciferase / NF-κB response in fsNOD2-transfected cells [1] | response of NOD2-transfected cells to inflammatory cytokines (NOD2) | NF-κB activation (luciferase expression) (NOD2; 300 pM MDP, HEK293T co-transfected with pNF-κB-Luc and pUNO-hNOD2) | signal in NOD2 reporter system (luciferase, RLU) (NOD2; 6 hours of incubation, without plasma) |
| --- | --- | --- | --- | --- |
| CC(=O)N[C@H]1C(O)O[C@H](CO)[C@@H](O)[C@@H]1O[C@H](C)C(=O)N[C@@H](C)C(=O)N[C@H](CCC(=O)O)C(N)=O (mixture of isomers) [MDP, muramyl dipeptide] | no increase in luciferase |  | induced NF-κB activation | positive signals |
